Assay results reported in patent US5942511A, “Allylthiopyridazine derivatives and process for preparing the same” (Kwon; Soon Kyoung, priority 1998, dated 1999).

Test system: serum LDH (lactate dehydrogenase)
Test: Effect of inhibiting hepatic disorder induced by acetaminophen (APAP): serum LDH
Assay type: in vivo, male ICR mice
Details: APAP 0.5 g/kg oral, compound 50 mg/kg per day oral, 3 days
Description: In addition, the liver protective effects of the compound of the present invention can also be confirmed by acetaminophen model [see, Wang et al., Toxicology and applied Pharmacology, 136, 146-154, 1996]. Acetaminophen is rapidly metabolized by CYP2E1 to cause hepatic toxicity, which results in structural and functional change in liver cellular membrane, causing necrosis in hepatic lobule, an increase in blood ALT and LDH (lactate dehydrogenase) levels.
In the present invention, the inhibiting effect of the compound of formula (I) on hepatic disorder, induced by carbon tetrachloride and acetaminophene, was determined after oral administration of the novel compound according to the present invention to mouse as the experimental animal for 3 days. The degree of liver damage in respective experimental animal was determined by measuring ALT and LDH levels in blood [see, Biol. Pharm. Bull., 20, 4, 381-385, 1997; Toxicology and Applied Pharmacology, 95, 1-11, 1988], and further by removing the liver, staining (×100) the liver with hematoxylin and eosin and then observing with microscope to examine the degree of hepatocyte necrosis.
Effect of inhibiting hepatic disorder induced by acetaminophen (APAP)
The liver protective effect of the compound according to the present invention was examined according to the known method [see, Wang et al., Toxicology and applied Pharmacology, 136, 146-154, 1996] as specifically described below.
The compound according to the present invention was suspended in corn oil and the resulting suspension was administered in an amount of 1.0 ml/kg. Each group was composed of 3 to 10 male ICR mice (5-6 weeks) and the test compound was orally administered for 3 days in the dose of 50 mg/kg per day. After 2 hours from the last administration of the test compound, acetaminophen was orally administered in an amount of 0.5 g/kg. In this experiment, silymarin was used as the comparative compound. After 22 hours from the administration of acetaminphen, blood was taken from the individual test animal and ALT and LDH values in serum were determined. The results as obtained are described in the following Tables 4 and 5 (in which ALT and LDH values are represented by mean±SE). In addition, liver was removed from the test animals and then observed according to the same manner as Experiment 3 to evaluate the degree of hepatocyte necrosis.

Structure (SMILES): C=CCSc1ccc(OC)nn1 [Example 4, 3-methoxy-6-allylthiopyridazine]
- Inhibiting rate (serum LDH): 99.8%
- Serum LDH value (mean±SE): 703 ± 83 KA unit/l
